From patent US10800741B2 (ANCUREALL PHARMACEUTICAL (SHANGHAI) CO., LTD., priority 2017, dated 2020)

Assays:
H1581 (FGFR1 amp) = assay: In vitro growth inhibition of H1581 tumor cells (MTT/CCK8); format: cell-based, Human; conditions: Homo sapiens, NCI-H1581; in vitro growth inhibition (or induction of apoptosis), cells cultured 3 to 5 days, MTT (CCK8); read-out: IC50 H1581 (FGFR1 amp)
Hep G2 = assay: In vitro growth inhibition of Hep G2 cells; format: cell-based; conditions: Homo sapiens, HepG2, FGFR3+++, FGFR4 +++
Method: (§1) Adherent cells were digested with 0.25% trypsin-EDTA (Gibco). Suspension culture cells were collected by centrifugation (1700 rpm, 3 minutes). The supernatant was discarded and the cells were counted. According to each cell growth cycle, different concentrations of cells were prepared (5˜10×10^4 cells per ml), and inoculated to 96-well plates (Corning), with 100 μl per well, and incubated overnight at 37° C., 5% CO2. The next day, the test compound was added to the cultured cells (2 wells in parallel). The final concentration of the solvent was less than 1/1,000. The cells were further cultured for 3 to 5 days and assayed by MTT.
(§2) The MTT test reagent was a Dojindo CCK8 kit and the Microplate Reader was a THERMO […] FC instrument.
(§3) The adherent cells were taken out from the cell culture medium, and immediately added to a freshly prepared complete medium containing 10% CCK8 (5% FBS), 100 ul per hole. The suspended cells were directly added to a CCK8 reagent until reaching a final concentration of 10% and cultured for 1 to 4 hours. When a dark yellow color could be observed in the solvent control wells, the absorbance value at OD450 nm was measured and the cell growth rate was calculated according to the following formula: Cell Growth Rate (%)=100×(T−T0)/(C−T0)
(§4) T=optical density of drug-treated cell wells−optical density of blank control wells; T0=optical density of cell wells before drug treatment−optical density of blank control wells; C=optical density of solvent control wells−optical density of blank control wells. […] The experiments were repeated 1 to 3 times and a statistical analysis of data was conducted.
(§5) Mutations in the FGFR1-4 gene often occur in different types of cancer patients. In order to test the growth inhibition activity of the present compound against tumor cells expressing different FGFR variants, tumor cell lines expressing representative FGFR1-4 were selected for further determining the activity of compounds 25, 66, 38 and 95 of the present invention. BGJ398, a selective inhibitor of FGFR1-4, was used as the control compound. The specific test method is the same as test example 1.

Cal-120 = assay: In vitro growth inhibition of Cal-120 cells; format: cell-based; conditions: Homo sapiens, FGFR1 amp
Method: as §1, §2, §3, §4, §5

AN3-CA = assay: In vitro growth inhibition of AN3-CA cells; format: cell-based; conditions: Homo sapiens, FGFR2 mutant
Method: as §1, §2, §3, §4, §5

Kasumi-1 (KIT N822K) = assay: In vitro growth inhibition of Kasumi-1 tumor cells (MTT/CCK8); format: cell-based, Human; conditions: Homo sapiens, Kasumi 1; in vitro growth inhibition (or induction of apoptosis), cells cultured 3 to 5 days, MTT (CCK8); read-out: IC50 Kasumi-1 (KIT N822K)
SW48 = assay: In vitro growth inhibition of PI3KCA amplified/mutant tumor cells SW48; format: cell-based; conditions: Homo sapiens; SW48; PI3KCA G914R; EGFR G719S; read-out: IC50 growth inhibition
Method: as §1, with “Suspension” for “Adherent cells were digested with 0.25% trypsin-EDTA (Gibco). Suspension”
(§6) The adherent cells were taken out from the cell culture medium, and immediately added to a freshly prepared complete medium containing 10% CCK8 (5% FBS), 100 ul per hole. The suspended cells were directly added to a CCK8 reagent until reaching a final concentration of 10% and cultured for 1 to 4 hours.
as §4

HGC-27 = assay: In vitro growth inhibition of PI3KCA amplified/mutant tumor cells HGC-27; format: cell-based; conditions: Homo sapiens; HGC-27; PI3KCA H1047R; FGFR1OP2+++; read-out: IC50 growth inhibition
Method: as §1, with “Suspension” for “Adherent cells were digested with 0.25% trypsin-EDTA (Gibco). Suspension”
as §6, §4

Huh-7 = assay: In vitro growth inhibition of Huh-7 cells; format: cell-based; conditions: Homo sapiens, FGFR3+++, FGFR4 +++
Method: as §1, §2, §3, §4, §5

DMS114 = assay: In vitro growth inhibition of DMS114 cells; format: cell-based; conditions: Homo sapiens, DMS-114, FGFR1 amp
Method: as §1, §2, §3, §4, §5

KATO III (FGFR2 amp) = assay: In vitro growth inhibition of KATO III tumor cells (MTT/CCK8); format: cell-based, Human; conditions: Homo sapiens, KATO III; in vitro growth inhibition (or induction of apoptosis), cells cultured 3 to 5 days, MTT (CCK8); read-out: IC50 KATO III (FGFR2 amp)
AGS = assay: In vitro growth inhibition of PI3KCA amplified/mutant tumor cells AGS; format: cell-based; conditions: Homo sapiens, PI3KCA E453K/E545A, KRAS G12D, read-out: IC50 growth inhibition
Method: as §1, with “Suspension” for “Adherent cells were digested with 0.25% trypsin-EDTA (Gibco). Suspension”
as §6, §4

JIMT-1 = assay: In vitro growth inhibition of JIMT-1 cells; format: cell-based; conditions: Homo sapiens, FGFR1 amp, HER2 amp, PI3KCA C420R
Method: as §1, §2, §3, §4, §5

A375 = assay: In vitro growth inhibition of A375 cells; format: cell-based; conditions: Homo sapiens, A-375, BRAF V600E, FGFR2 mutant
Method: as §1, §2, §3, §4, §5

Compound | IC50 (H1581 (FGFR1 amp)) [nM] | IC50 (Hep G2) [nM] | IC50 (Cal-120) [nM] | IC50 (AN3-CA) [nM] | IC50 (Kasumi-1 (KIT N822K)) [nM] | IC50 (SW48) [nM] | IC50 (HGC-27) [nM] | IC50 (Huh-7) [nM] | IC50 (DMS114) [nM] | IC50 (KATO III (FGFR2 amp)) [nM] | IC50 (AGS) [nM] | IC50 (JIMT-1) [nM] | IC50 (A375) [nM]
COCCOc1cc2nccc(Oc3ccc(NC(=O)Nc4cc(C(C)(C)C)n[nH]4)c(Cl)c3)c2cc1NC(C)=O [Compound 66, N-[4-{4-[3-(5-tert-butyl-2H-pyrazol-3-yl)-ureido]-3-chloro-phenoxy}-7-(2-methoxy-ethoxy)-quinolin-6-yl]-acetamide] | 2.03 | 79.1 | 9.77 | 3.95 | 1.13 | 28.2 | 39.9 | 1.98 | 3.92 | 0.08 | 43.5 | 19.6 | 31.5
COc1cc2nccc(Oc3ccc(NC(=O)Nc4cc(C(C)(C)C)nn4C)c(Cl)c3Cl)c2cc1C(N)=O [Compound 38, 4-{4-[3-(5-tert-butyl-2-methyl-2H-pyrazol-3-yl)-ureido]-2,3-dichloro-phenoxy}-7-methoxyquinolin-6-carboxamide] | 0.29 | 119 | 9.77 | 3.67 | 1.32 | 13.6 | 19.2 | 3.99 | 4.1 | 0.18 | 41.1 | 19.1 | 16.7
CN1CCN(CCCOc2cc3nccc(Oc4ccc(NC(=O)Nc5cc(C(C)(C)C)n[nH]5)c(Cl)c4Cl)c3cc2C(N)=O)CC1 [Compound 95] | 7.88 | 128 | 9.77 | 3.89 | 1.34 | 41.9 | 30.9 | 7.89 | 2.94 | 0.91 | 39.9 | 20.6 | 62.1
